Measured values: publication PMC12040169 (PLOS Biology, 2025)

Test: in vitro
Conditions: human, hela cells, % viability

Row | Structure (SMILES) | viability at 28.5 h, 10 µM
1 | O=C(CN1C(=O)c2ccccc2S1(=O)=O)Nc1ccccc1-c1ccccc1 [CBK266390] | 102%
2 | O=S(=O)(NC1CCCCC1n1cc(-c2ccccc2)nn1)c1ccc(Cl)cc1 (stereo not shown) [CBK266391] | 99%
3 | COc1ccc(Cl)cc1NC(=O)CN(c1cc([N+](=O)[O-])ccc1C)S(C)(=O)=O [CBK266394] | 114%
4 | NC(=O)c1ccccc1NC(=O)CCSc1ccc([N+](=O)[O-])cc1Cl [CBK266396] | 80.1%
5 | C/C=C/c1ccc(OCCNC2CCCC2)c(OC)c1 [CBK266399G] | 93.9%
6 | Clc1ccc(SCCCSc2ncccn2)cc1 [CBK266400] | 96.8%
7 | Cc1ccc2c(c1)C(c1c[nH]c3ccccc13)(c1c[nH]c3ccccc13)C(=O)N2C [CBK266401] | 103%
8 | Cn1cc(C(c2ccc(OCC(=O)O)cc2)c2cn(C)c3ccccc23)c2ccccc21 [CBK266403] | 94.5%
9 | CC(C)(c1ccccc1)c1ccc(OCCCCn2cncn2)cc1 [CBK266405] | 89.5%
10 | O=C(CCSc1ccc([N+](=O)[O-])cc1Cl)Nc1ccc(Br)c2cccnc12 [CBK266407] | 86.7%
11 | Cc1cccc(NC(c2ccc(C)s2)c2ccc3ccc(C)nc3c2O)n1 (stereo not shown) [CBK266408] | 94.2%
12 | CCOC(=O)c1c(NC(=O)CSc2n[nH]c(N)n2)sc(C)c1C [CBK266412] | 94.4%
13 | CCN(CC)CCN1C(=O)C(O)=C(C(=O)c2cc3ccccc3o2)C1c1ccccn1 (stereo not shown) [CBK266413] | 86.1%
14 | COc1cccc2cc(C(=O)C3=C(O)C(=O)N(CCN4CCOCC4)C3c3ccc(F)cc3)oc12 (stereo not shown) [CBK266414] | 93.3%
15 | Cc1cc(Cl)c(S(=O)(=O)Nc2ccc(I)cc2)cc1OCC(N)=O [CBK266418] | 105%
16 | OCCNCc1cc(Br)ccc1OCc1ccc(F)cc1 [CBK266421C] | 96%
17 | O=C(O)CCN1C(=O)c2ccc(NC(=O)CCc3ccccc3)cc2C1=O [CBK266422] | 95.2%

Row | Structure (SMILES) | viability at 28.5 h, 10 µM
18 | Cc1ccc(OCc2nc(C#N)c(NCCCN3CCOCC3)o2)cc1 [CBK266423] | 112%
19 | Cc1cc(C)c(S(=O)(=O)N2CCC(C(=O)Nc3ccc(C(N)=O)cc3)CC2)c(C)c1 [CBK266424] | 91.7%
20 | Cc1ccc(-c2noc(CN3CCN(C(c4ccccc4)c4ccccc4)CC3)n2)cc1 [CBK266425] | 96.5%
21 | Cc1ccc(OCC(=O)Nc2ncc(C(F)(F)F)cc2Cl)c(Br)c1 [CBK266426] | 95.1%
22 | Brc1ccc(-n2cc(-c3ccccc3)c3c(NCc4ccccn4)ncnc32)cc1 [CBK266427] | 104%
23 | COc1cc(F)ccc1S(=O)(=O)NC1CC(C)(C)NC(C)(C)C1 [CBK266428] | 112%
24 | COc1cc(NC(=O)C(C)Oc2ccc(Cl)cc2C)c(C(=O)O)cc1OC (stereo not shown) [CBK266430] | 86%
25 | COc1cc(CNC(C)(C)CO)ccc1OCc1ccc(Cl)cc1 [CBK266433C] | 92%
26 | CC(C)(C)NS(=O)(=O)c1ccc(OCC(=O)NCc2ccncc2)cc1 [CBK266434] | 97.3%
27 | Cc1cc(I)cnc1NC(=O)CSc1ccc(Cl)cc1 [CBK266438] | 94.3%
28 | CCCN1C(=O)c2ccc(C(=O)Nc3cc(C(=O)O)cc(C(=O)O)c3)cc2C1=O [CBK266441] | 97%
29 | Cn1nnc(NC(=O)COc2ccc(C3CCCCC3)cc2)n1 [CBK266442] | 95.9%
30 | Cc1ccccc1NS(=O)(=O)c1cc(OCC(N)=O)c(C)cc1Cl [CBK266443] | 85.9%
31 | O=C(CN(c1ccc2c(c1)OCCO2)S(=O)(=O)c1ccccc1)N1CCN(Cc2ccccc2)CC1 [CBK266444] | 113%
32 | Cc1ccc(S(=O)(=O)N2CCN(c3nc(NC(C)c4ccccc4)c4ccccc4n3)CC2)cc1 (stereo not shown) [CBK266448] | 106%
33 | CCOC(=O)c1cnc(SCc2cccc([N+](=O)[O-])c2)nc1N [CBK266449] | 95%
34 | CS(=O)(=O)N1CCN(c2ccc(NC(=O)COc3ccc4ccccc4c3)cc2)CC1 [CBK266450] | 96.8%
